One may read the melting point as the temperature, or range, at which the solid turns liquid.

Series [1] relates to hippocampal kindled seizures. Description: Rat Hippocampal Kindling Test (Interruption of Kindled State). Type of series: in vivo. Particulars: reference drugs; suppression at doses associated with toxicity. The method, then: In the present rapid hippocampal kindling model adult male Sprague-Dawley rats (300-400 g) were surgically implanted with bipolar electrodes placed in the hippocampus. […] One week later, the rats received 2-3 supra-threshold stimulations delivered every 30 min before treatment with test compound, to ensure stability of the behavioral seizure stage and after-discharge duration. Fifteen minutes after the last stimulation, a single dose of vehicle or test compound was administered i.p. (intraperitoneally). After 15 min, each rat was then stimulated every 30 min for 3 to 4 h. After each stimulation, individual seizure scores and after-discharge durations were recorded. The group mean±SEM were calculated for each parameter. Eight rats per dose and a minimum of four doses were used to establish an ED50 value. Efficacy was measured as the ability of a compound to modify the seizure score (severity of spread) and after-discharge duration (ADD; excitability) of the generalized seizures.
Thus, according to the theories presented in current literature (Ghaemi, S. N., Boiman, E. E., and Goodwin, F. K., Soc. of Bio. Psychiatry, (1999), vol. 45, pp 137-144; Stoll, A. L., and Severus, W. E., Harvard Rev. Psychiatry, July/August (1996), Vol. 4, No. 2, pp 77-89) a decrease in seizure score and/or ADD may also be predictive of the ability of a test compound to treat the cycling associated with bipolar disorder.

Series [2] in a line: Median toxic dose (TD50) / toxic doses of Compound #8 and reference drugs. Conditions: rat, in vivo.
In series [3] the test system is stressed and non-stressed animals. Description: Resident/Intruder Assay (Chronic Social Stress Assay). Type of series: in vivo. Set-up: Locomotor Mean ± SD / Rearing Mean ± SD / Sniffing Down Mean ± SD / Sniffing Up Mean ± SD: unit not given here. Conditions: 10 mg/kg p.o. From the text: The behavioral resident/intruder assay is used to screen compounds for anti-depressant-like activity.

In series [4] the test system is Wistar rats. Nature of the series: Chronic Mild Stress Model (Chronic). The format is in vivo, rat. Conditions: stressed animals; i.p. once daily. From the text: In the chronic mild stress (CMS) model rats subjected to a variety of mild stressors for a prolonged period of time show, among other behavioral, biochemical and physiological impairments, a substantial decrease in their responsiveness to rewarding stimuli. This deficit is usually monitored by a decrease in the consumption of the 1% sucrose solution, but can also be seen in other tests, such as place preference conditioning or intracranial self-stimulation. Since the subsensitivity to reward appears to reflect anhedonia (inability to experience pleasure), which is a core symptom of major depressive disorders, the CMS procedure may serve as a suitable research tool in studies into the mechanisms of antidepressant action.
Male Wistar rats were brought into the laboratory two months before the start of the experiment. Except as described below, the animals were singly housed with food and water freely available, and were maintained on a 12-h light/dark and in a constant temperature (22±2° C.) and humidity (50±5%) conditions.
The animals were first trained to consume a 1% sucrose solution; training consisted of eight 1 h baseline tests in which sucrose was presented, in the home cage, following 14 h food and water deprivation; the sucrose intake was measured by weighing pre-weighed bottles containing the sucrose solution, at the end of the test. Subsequently, sucrose consumption was monitored, under similar conditions, at weekly intervals throughout the whole experiment.
On the basis of their sucrose intakes in the final baseline test, the animals were divided into two matched groups. One group of animals was subjected to the chronic mild stress procedure for a period of 7 consecutive weeks. […]
All results obtained in this study were analyzed by multiple analyses of variance with three between-subjects factors (stress/control, drug treatments and successive sucrose tests). […]

Series [5] concerns hippocampal kindled seizures. Particulars: rat, in vivo; cited from earlier work.
For series [6], the system named is amygdala kindled seizures. Particulars: i.p.; cited from earlier work.

Consider `CCCC(CCC)C(=O)O` [Valproic acid, reference compound], for which the “seizure activity in the hippocampal kindling model” value (“seizure activity” for short) in series [1] is “significantly suppressed seizure activity”. Further, the toxic doses in series [2] is reported as greater than 300 mg/kg.
Consider `NC(=O)N1c2ccccc2C=Cc2ccccc21` [Carbamazepine], for which, in series [1], the “seizure activity” value is given as “significantly suppressed seizure activity”.
The compound `NS(=O)(=O)NCC1CCc2ccccc2O1` (centres unmarked) showed a melting point of 100 to 101 °C.
For `CN(C)CCCN1c2ccccc2CCc2ccccc21` [Imipramine, imipramine, reference compound], in series [3] (non-stressed), the “Forced Swim Test: Immobility during 5 min: Week 5 Mean ± SD” value was 125.3 ± 50.1, the “Sucrose Intake Mean ± SD Week 3” value is recorded as 87.9 ± 2.7, the “Sucrose Intake Mean ± SD Week 4” value was 89.7 ± 5.3 and the “Sucrose Intake Mean ± SD Week 5” value is on record as 91.0 ± 3.7. Moreover, in series [3] (non-stressed, week 1), the “Locomotor Mean ± SD” value is on record as 8162.8 ± 929.9, the “Rearing Mean ± SD” value is listed as 51.5 ± 12.6 and the “Sniffing Down Mean ± SD” value is on record as 25.8 ± 4.9. Also, in series [3] (non-stressed, week 5), the “Rearing Mean ± SD” value was determined as 42.1 ± 2.9, the “Sniffing Down Mean ± SD” value is 26.4 ± 5.2 and the “Sniffing Up Mean ± SD” value is on record as 37.5 ± 2.1. For the same compound, in series [3] (stressed), the “Forced Swim Test: Immobility during 5 min: Week 5 Mean ± SD” value is on record as 157.5 ± 71.6, the “Sucrose Intake Mean ± SD Week 3” value is listed as 70.5 ± 19.5, the “Sucrose Intake Mean ± SD Week 4” value worked out at 78.3 ± 15.1 and the “Sucrose Intake Mean ± SD Week 5” value was 73.6 ± 19.4. For the same compound, in series [3] (stressed, week 1), the “Locomotor Mean ± SD” value was found to be 6037.8 ± 1382.8, the “Rearing Mean ± SD” value worked out at 30 ± 9.5, the “Sniffing Down Mean ± SD” value was 14.4 ± 4.4 and the “Sniffing Up Mean ± SD” value was 27.5 ± 7.9. In series [3] (stressed, week 5), the “Locomotor Mean ± SD” value was 5642.8 ± 998.6, the “Rearing Mean ± SD” value came out at 27.8 ± 7.4, the “Sniffing Down Mean ± SD” value stood at 17.3 ± 3.4 and the “Sniffing Up Mean ± SD” value amounted to 24.3 ± 5.1. Further, in series [4], the “treatment time after which increases in sucrose intake in stressed animals reached statistical significance vs Week 0” value is “four weeks”.
`CCC1(C)CC(=O)NC1=O` (centres unmarked) [Ethosuximide]: in series [1], the “seizure activity” value is “ineffective”.
For the compound `Nc1nnc(-c2cccc(Cl)c2Cl)c(N)n1` [lamotrigine], the “protection against hippocampal kindled seizures” value in series [5] is “unable to protect”. In series [6], the “ADD reduced by” value was 62%, the “ED50 (amygdala kindled seizures)” value is 25 mg/kg and the “amygdala kindled seizure score” value was roughly 2.
